How the values were obtained:
hERG channel [1] = target: hERG channel (Homo sapiens, UniProt Q12809); assay: Automated patch clamp recording of hERG tail current (IonWorks); conditions: hERG tail current ratio post/pre-compound, 50 uM
GPR35 [2] = assay: DMR desensitization / antagonism mode against GPR35 agonist-induced DMR in HT29 cells; format: cell-based, human; conditions: HT29 cells pretreated with compound, then GPR35 agonist
GPR35 [3] = target: T1, GPR35 (Homo sapiens, UniProt Q9HC97); assay: Ca2+ mobilization assay (Fluo-4) in HEK-GPR35-Gqo5 cells; format: cell-based; conditions: for Ca2+ moblization (HEK-GPR35-Gqo5): HEK293 cells co-expressing GPR35 and Gqo5, Fluo-4, compounds 10 μM; for Ca2+ mobilization signal in cells co-expressing GPR35 and Gqo5: engineered HEK293, 10 μM
T1 construct: myc; expressed in transfected cells; host or cells: HEK293, transient co-transfection (Lipofectamine LTX)
T1 sequence (Q9HC97 whole entry): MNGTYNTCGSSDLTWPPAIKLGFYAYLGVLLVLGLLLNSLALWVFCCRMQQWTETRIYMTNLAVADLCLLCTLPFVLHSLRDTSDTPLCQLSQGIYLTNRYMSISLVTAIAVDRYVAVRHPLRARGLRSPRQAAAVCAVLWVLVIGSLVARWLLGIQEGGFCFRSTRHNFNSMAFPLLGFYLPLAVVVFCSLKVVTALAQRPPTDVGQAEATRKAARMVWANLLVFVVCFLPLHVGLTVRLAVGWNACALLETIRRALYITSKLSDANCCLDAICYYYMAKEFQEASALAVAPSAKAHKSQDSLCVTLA

hERG channel [4] = assay: Cross-desensitization DMR assay against hERG activator mallotoxin-induced DMR in HT29 cells; conditions: HT29 cells pretreated with compound, then hERG activator mallotoxin

hERG channel (Homo sapiens, UniProt Q12809), sequence (Q12809 whole entry): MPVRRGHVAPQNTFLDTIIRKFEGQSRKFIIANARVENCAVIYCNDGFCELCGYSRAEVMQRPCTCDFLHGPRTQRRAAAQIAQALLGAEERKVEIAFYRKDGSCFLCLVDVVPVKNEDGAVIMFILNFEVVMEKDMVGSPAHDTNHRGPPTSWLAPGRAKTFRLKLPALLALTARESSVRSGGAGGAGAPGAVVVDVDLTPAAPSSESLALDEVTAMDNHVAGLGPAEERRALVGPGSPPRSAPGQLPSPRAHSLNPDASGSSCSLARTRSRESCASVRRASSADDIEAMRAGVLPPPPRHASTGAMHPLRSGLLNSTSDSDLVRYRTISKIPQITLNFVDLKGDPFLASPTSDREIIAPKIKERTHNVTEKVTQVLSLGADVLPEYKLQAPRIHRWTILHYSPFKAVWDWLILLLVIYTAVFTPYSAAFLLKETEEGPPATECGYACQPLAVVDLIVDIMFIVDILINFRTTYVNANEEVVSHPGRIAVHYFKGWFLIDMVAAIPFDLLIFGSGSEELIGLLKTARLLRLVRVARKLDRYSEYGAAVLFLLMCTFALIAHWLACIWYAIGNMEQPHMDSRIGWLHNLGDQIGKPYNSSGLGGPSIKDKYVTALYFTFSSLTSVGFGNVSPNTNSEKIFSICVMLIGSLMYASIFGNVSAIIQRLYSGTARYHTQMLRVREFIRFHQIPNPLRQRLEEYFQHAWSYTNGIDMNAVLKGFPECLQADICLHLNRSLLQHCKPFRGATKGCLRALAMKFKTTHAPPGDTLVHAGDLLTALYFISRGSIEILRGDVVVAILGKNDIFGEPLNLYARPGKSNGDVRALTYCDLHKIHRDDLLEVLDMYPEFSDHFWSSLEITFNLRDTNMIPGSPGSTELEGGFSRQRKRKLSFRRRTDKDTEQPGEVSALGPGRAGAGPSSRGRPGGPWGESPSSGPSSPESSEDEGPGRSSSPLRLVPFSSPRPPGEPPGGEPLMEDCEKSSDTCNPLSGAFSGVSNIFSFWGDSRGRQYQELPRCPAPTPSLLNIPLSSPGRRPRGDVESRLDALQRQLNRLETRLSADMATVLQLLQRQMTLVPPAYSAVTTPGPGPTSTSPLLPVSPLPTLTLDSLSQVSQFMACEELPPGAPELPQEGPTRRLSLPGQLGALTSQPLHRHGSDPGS

| SMILES | Electrophysiology (HEK-hERG) (hERG channel [1]) | Desenstization to GPR35 agonist (GPR35 [2]) | Ca2+ moblization (HEK-GPR35-Gqo5) (GPR35 [3]) | Desenstization to hERG activator (hERG channel [4]) | Ca2+ mobilization signal in cells co-expressing GPR35 and Gqo5 (GPR35 [3]) |
| --- | --- | --- | --- | --- | --- |
| CC1=C(C#N)C(=C(C#N)C#N)OC1(C)c1c(F)c(F)c(F)c(F)c1F (centres unmarked) [Compound 09, 2-dicyanomethylene-3-cyano-4,5-dimethyl-5-[2′3′4′5′6′-pentafluorophenyl]-2,5-dihydrofuran] | inactive | desenstized | active |  |  |
| CC1=C(C#N)C(=C(C#N)C#N)OC1(C)C [Compound 10, 2-dicyanomethylene-3-cyano-4,5,5-trimethyl-2,5-dihydrofuran] | inactive | desenstized | active |  |  |
| O=C(O)c1cc2sccc2s1 [Compound 11, thieno[3,2-b]thiophene-2-carboxylic acid] | inactive | desenstized | inactive |  |  |
| Cc1c(C(=O)O)sc2ccsc12 [Compound 12, 3-methyl-thieno[3,2-b]thiophene-2-carboxylic acid] | inactive | desenstized | active |  |  |
| CCCCCCc1csc2cc(C(=O)O)sc12 [Compound 14, 6-hexyl-thieno[3,2-b]thiophene-2-carboxylic acid] | blocker | desenstized | active |  |  |
| CCCCCCCCc1c(C(=O)O)sc2c(Br)csc12 [Compound 21, 3-n-octyl-6-bromo-thieno[3,2-b]thiophene-2-carboxylic acid] | activator | desenstized | active |  |  |
| Cc1csc2c1sc1cc(C(=O)O)sc12 [Compound 22, 5-methyl-dithieno[3,2-b:2′,3′-d]thiophene-2-carboxylic acid] | inactive | desenstized | inactive |  |  |
| CCOC(=O)c1cc2sc3cc(C(=O)OCC)sc3c2s1 [Compound 23, diethyl dithieno[3,2-b:2′,3′-d]thiophene-2,6-dicarboxylate] | inactive | desenstized | inactive |  |  |
| OCCN(CCO)c1ccc(C=Cc2cccs2)cc1 [Compound 24, N,N-bis(2-hydroxyethyl)-4-[2-(thiophene-2-yl)vinyl]aniline] | inactive | inactive | inactive |  |  |
| COC(=O)c1ccc(C=Cc2ccc(N(C)CCO)cc2)s1 [Compound 25, methyl-5-{2-[4-(N-methyl,N-2-hydroxyethyl-amino)phenyl]ethenyl}-thiophene-2-formate] | inactive | desenstized | active |  |  |
| CN(CCO)c1ccc(C=Cc2ccc(C(=O)[O-])s2)cc1.[Li+] [Compound 26, 5-{2-[4-(N-methyl, N-2-hydroxyethyl-amino)phenyl]ethenyl}-thiophene-2-formate lithium] | inactive | desenstized | active |  |  |
| OCc1ccc(-c2cccs2)s1 [Compound 27, 2,2′-bithiophene-5-methanol] | blocker | inactive | inactive |  |  |
| O=Cc1ccc(-c2ccc(CO)s2)s1 [Compound 28, 5-hydroxymethyl-5′-formyl-2,2′-bithiophene] | inactive | desenstized | inactive |  |  |
| O=C([O-])c1ccc(-c2ccc(/C=C/c3ccc(N(CCO)CCO)cc3)s2)s1.[Na+] [Compound 29] | activator | desenstized | active | partially desenstized |  |
| O=Cc1ccc(-c2cccs2)s1 [Compound 30, 2,2′-bithiophene-5-carboxaldehyde] | blocker | desenstized | inactive |  |  |
| O=C(O)c1cc(-c2ccc(F)cc2F)ccc1O [Diflunisal] | activator | desenstized | active |  | active |
| O=C(O)c1ccccc1Nc1cccc(C(F)(F)F)c1 [Flufenamic acid] | activator | desenstized | active | desenstized | active |
| Cc1c(Nc2ncccc2C(=O)O)cccc1C(F)(F)F [Flunixin] | activator | desenstized | active |  | active |
| O=C(O)c1cc(=O)c2ccccc2[nH]1 [Kynurenic acid] | inactive | desenstized | inactive |  |  |
| Cc1ccc(Cl)c(Nc2ccccc2C(=O)O)c1Cl [Meclofenamate] |  | desenstized | inactive | partially desenstized |  |
| O=C(O)c1cc([N+](=O)[O-])ccc1NCCCc1ccccc1 [NPPB] | activator | desenstized | active |  | active |
| O=C(O)c1cccnc1Nc1cccc(C(F)(F)F)c1 [Niflumic acid] | activator | desenstized | active |  | active |
| O=C(O)c1cc(/N=N/c2ccc(S(=O)(=O)Nc3ccccn3)cc2)ccc1O [Sulfasalazine] | inactive | desenstized | inactive |  |  |
| CC1=C(CC(=O)O)c2cc(F)ccc2/C1=C\c1ccc([S+](C)[O-])cc1 (centres unmarked) [Sulindac] | blocker | desenstized | inactive |  |  |
| O=C1OC(OC(=O)c2cccnc2Nc2cccc(C(F)(F)F)c2)c2ccccc21 (centres unmarked) [Talniflumate] | inactive | desenstized | inactive |  |  |
| Cc1c(Cl)cccc1Nc1ccccc1C(=O)O [Tolfenamic acid] | blocker | desenstized | active |  | active |
| N#C/C(=C\c1ccc(O)c(O)c1)C(N)=O [Tyrphostin 46] | inactive | desenstized |  | inactive |  |
| N#C/C(=C\c1ccc(O)c(O)c1)C(N)=S [Tyrphostin 47] | activator | desenstized |  | partially desenstized |  |
| N#CC(C#N)=C(N)/C(C#N)=C/c1cc(O)c(O)c(O)c1 [Tyrphostin 51] | inactive | desenstized |  | partially desenstized |  |

From patent US20120022116A1, “COMPOSITIONS AND METHODS FOR THE TREATMENT OF PATHOLOGICAL CONDITION(S) RELATED TO GPR35 AND/OR GPR35-HERG COMPLEX” (priority 2010, published 2012)
